In ChEMBL document CHEMBL4376834, “Discovery of 4H-Chromen-4-one Derivatives as a New Class of Selective Rho Kinase (ROCK) Inhibitors, which Showed Potent Activity in ex Vivo Diabetic Retinopathy Models” (J Med Chem, 2019):

What was measured:
[1] = target: Tyrosine-protein kinase FRK (Homo sapiens, UniProt P42685); test: Inhibition of recombinant human PTK5 (218 to end residues) using GGEEEEYFELVKK as substrate incubated for 40 mins in presence of [gamma33P]ATP by radiometric scintillation counting analysis
[2] = target: Serine-protein kinase ATM (Homo sapiens, UniProt Q13315); test: Inhibition of recombinant full-length human ATM using GST-cMyc-p53 as substrate measured after 40 mins by ELISA
[3] = target: Macrophage colony-stimulating factor 1 receptor (Homo sapiens, UniProt P07333); test: Inhibition of recombinant human FMS (538 to end residues) using KKKSPGEYVNIEF as substrate after 40 mins in presence of [gamma-33ATP] by radiometric scintillation counting analysis
[4] = target: Calcium/calmodulin-dependent protein kinase type II subunit gamma (Homo sapiens, UniProt Q13555); test: Inhibition of recombinant human CaMK2gamma (1 to 330 residues) using calmodulin as substrate incubated for 40 mins in presence of [gamma-33ATP] by radiometric scintillation counting analysis
[5] = target: Mitogen-activated protein kinase kinase kinase 20 (Homo sapiens, UniProt Q9NYL2); test: Inhibition of recombinant full-length human ZAK using MBP as substrate incubated for 40 mins in presence of [gamma33P]ATP by radiometric scintillation counting analysis
[6] = target: Phosphorylase b kinase gamma catalytic chain, liver/testis isoform (Homo sapiens, UniProt P15735, F290L); test: Inhibition of recombinant human PhKgamma2 F290L (1 to 301 residues) usingKKLNRTLSFAEPG as substrate incubated for 40 mins in presence of [gamma33P]ATP by radiometric scintillation counting analysis
Misshapen-like kinase 1 = Misshapen-like kinase 1 (Homo sapiens, UniProt Q8N4C8); test: Inhibition of recombinant human MINK (1 to 310 residues) using myelin basic protein as substrate incubated for 40 mins in presence of [gamma-33ATP by radiometric scintillation counting analysis
[7] = target: Serine/threonine-protein kinase 35 (Homo sapiens, UniProt Q8TDR2); test: Inhibition of recombinant full length human CLIK1 at 10 uM using RSRSRSRSRSRS as substrate measured after 40 mins in presence of [gamma33P]ATP by radiometric scintillation counting analysis
[8] = target: Tyrosine-protein kinase ABL1 (Homo sapiens, UniProt P00519, H396P); test: Inhibition of human recombinant ABL1 H396P mutant (27 to end residues) using EAIYAAPFAKKK as substrate incubated for 40 mins in presence of [gamma-33P]ATP by radiometry scintillation counting analysis assay
[9] = target: Cyclin-dependent kinase 13/Cyclin-K (Homo sapiens, UniProt Q14004); test: Inhibition of recombinant full length human CDK13/cyclinK using RSRSRSRSRSRSR as substrate incubated for 120 mins in presence of [gamma-33ATP] by radiometric scintillation counting analysis; type: protein-complex assay
[10] = target: Hepatocyte growth factor receptor (Homo sapiens, UniProt P08581, M1250T); test: Inhibition of recombinant human MET A1209G/V1290L/M1268T triple mutant (974 to end residues) using KKKGQEEEYVFIE as substrate incubated for 40 mins in presence of [gamma-33ATP by radiometric scintillation counting analysis
[11] = target: G protein-coupled receptor kinase 6 (Homo sapiens, UniProt P43250); test: Inhibition of recombinant full length human GRK6 using casein as substrate after 40 mins in presence of [gamma-33ATP] by radiometric scintillation counting analysis
[12] = target: Serine/threonine-protein kinase Nek9 (Homo sapiens, UniProt Q8TD19); test: Inhibition of recombinant human NEK9 (1 to 324 residues) using myelin basic protein as substrate measured after 40 mins in presence of [gamma33P]ATP by radiometric scintillation counting analysis
[13] = target: Proto-oncogene tyrosine-protein kinase receptor Ret (Homo sapiens, UniProt P07949); test: Inhibition of recombinant human Ret (658 to end residues) using KKKSPGEYVNIEF as substrate incubated for 40 mins in presence of [gamma33P]ATP by radiometric scintillation counting analysis
[14] = target: Tyrosine-protein kinase Fyn (Homo sapiens, UniProt P06241); test: Inhibition of recombinant full length human Fyn using […] as substrate after 40 mins in presence of [gamma-33ATP] by radiometric scintillation counting analysis
[15] = target: Mitogen-activated protein kinase kinase kinase 3 (Homo sapiens, UniProt Q99759); test: Inhibition of recombinant full length human MEKK3 using MBP as substrate incubated for 120 mins in presence of [gamma-33ATP by radiometric scintillation counting analysis
[16] = target: Ribosomal protein S6 kinase beta-1 (Homo sapiens, UniProt P23443, T412E); test: Inhibition of recombinant human p70S6K T412E mutant (1 to 421 residues) using KKRNRTLTV as substrate measured after 40 mins in presence of [gamma33P]ATP by radiometric scintillation counting analysis
[17] = target: Insulin-like growth factor 1 receptor (Homo sapiens, UniProt P08069); test: Inhibition of human recombinant IGF1R (959 to end residues) using KKKSPGEYVNIEF as substrate after 40 mins by [gamma-33ATP] by radiometric scintillation counting analysis
[18] = target: Serine/threonine-protein kinase TBK1 (Homo sapiens, UniProt Q9UHD2); test: Inhibition of recombinant full length human TBK1 using KRRRALS(p)VAS as substrate incubated for 40 mins in presence of [gamma33P]ATP by radiometric scintillation counting analysis
[19] = target: DNA-dependent protein kinase catalytic subunit (Homo sapiens, UniProt P78527); test: Inhibition of recombinant full length human DNA-PK using GST-cMyc-p53 as substrate incubated for 40 mins by fluorescence assay
[20] = target: Mitogen-activated protein kinase 10 (Homo sapiens, UniProt P53779); test: Inhibition of recombinant full length human JNK3 using peptide substrate after 40 mins by [gamma-33ATP] by radiometric scintillation counting analysis
[21] = target: Macrophage colony-stimulating factor 1 receptor (Homo sapiens, UniProt P07333, Y969C); test: Inhibition of recombinant human FMS Y969C mutant (538 to end residues) using EEEEYEEEEEEYY as substrate after 40 mins in presence of [gamma-33ATP] by radiometric scintillation counting analysis
[22] = target: Dual specificity tyrosine-phosphorylation-regulated kinase 1B (Homo sapiens, UniProt Q9Y463); test: Inhibition of recombinant full length human DYRK1B using RRRFRPASPLRGPP as substrate after 40 mins in presence of [gamma-33ATP] by radiometric scintillation counting analysis
[23] = target: Dual specificity protein kinase CLK2 (Homo sapiens, UniProt P49760); test: Inhibition of recombinant human CLK2 (138 to end residues) using YRRAAVPPSPSLSR as substrate incubated 40 mins in presence of [gamma-33ATP] by radiometric scintillation counting analysis
Angiopoietin-1 receptor = Angiopoietin-1 receptor (Homo sapiens, UniProt Q02763, Q939H/Q940H); test: Inhibition of recombinant human TIE2 Q939H/Q940H double mutant (771 to end residues) using poly(Glu, Tyr) 4:1 as substrate incubated for 40 mins in presence of [gamma33P]ATP by radiometric scintillation counting analysis

Measured: IC50

Angiopoietin-1 receptor, sequence (Q02763 23-1124 Q939H/Q940H limits assumed): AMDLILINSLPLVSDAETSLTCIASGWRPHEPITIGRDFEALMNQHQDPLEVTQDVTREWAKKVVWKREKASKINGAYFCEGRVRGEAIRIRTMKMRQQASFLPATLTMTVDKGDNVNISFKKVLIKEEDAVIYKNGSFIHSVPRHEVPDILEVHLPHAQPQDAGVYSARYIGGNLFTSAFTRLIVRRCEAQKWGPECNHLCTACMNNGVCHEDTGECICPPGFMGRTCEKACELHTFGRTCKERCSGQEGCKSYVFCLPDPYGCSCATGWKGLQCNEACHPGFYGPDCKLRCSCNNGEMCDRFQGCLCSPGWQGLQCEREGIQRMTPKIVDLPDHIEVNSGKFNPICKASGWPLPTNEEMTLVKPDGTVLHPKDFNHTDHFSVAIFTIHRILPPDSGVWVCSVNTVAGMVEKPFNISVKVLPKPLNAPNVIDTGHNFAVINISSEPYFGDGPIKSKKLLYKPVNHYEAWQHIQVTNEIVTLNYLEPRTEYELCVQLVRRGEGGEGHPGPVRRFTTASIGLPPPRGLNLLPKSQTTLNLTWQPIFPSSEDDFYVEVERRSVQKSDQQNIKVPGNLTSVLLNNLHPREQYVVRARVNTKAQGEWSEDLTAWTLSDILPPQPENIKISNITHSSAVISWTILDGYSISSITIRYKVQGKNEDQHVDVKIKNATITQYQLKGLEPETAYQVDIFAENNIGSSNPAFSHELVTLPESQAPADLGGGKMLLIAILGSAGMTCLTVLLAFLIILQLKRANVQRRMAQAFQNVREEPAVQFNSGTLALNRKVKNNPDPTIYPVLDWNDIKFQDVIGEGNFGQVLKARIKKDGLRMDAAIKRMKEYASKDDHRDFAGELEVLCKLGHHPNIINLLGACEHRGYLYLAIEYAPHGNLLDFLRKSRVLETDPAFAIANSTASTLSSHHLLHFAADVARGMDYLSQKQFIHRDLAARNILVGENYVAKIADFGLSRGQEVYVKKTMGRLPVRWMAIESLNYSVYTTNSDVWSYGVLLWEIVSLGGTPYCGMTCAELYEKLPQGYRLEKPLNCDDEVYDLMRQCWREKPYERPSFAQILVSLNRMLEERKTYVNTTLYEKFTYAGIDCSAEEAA
Insulin-like growth factor 1 receptor, sequence (P08069 31-736 limits assumed): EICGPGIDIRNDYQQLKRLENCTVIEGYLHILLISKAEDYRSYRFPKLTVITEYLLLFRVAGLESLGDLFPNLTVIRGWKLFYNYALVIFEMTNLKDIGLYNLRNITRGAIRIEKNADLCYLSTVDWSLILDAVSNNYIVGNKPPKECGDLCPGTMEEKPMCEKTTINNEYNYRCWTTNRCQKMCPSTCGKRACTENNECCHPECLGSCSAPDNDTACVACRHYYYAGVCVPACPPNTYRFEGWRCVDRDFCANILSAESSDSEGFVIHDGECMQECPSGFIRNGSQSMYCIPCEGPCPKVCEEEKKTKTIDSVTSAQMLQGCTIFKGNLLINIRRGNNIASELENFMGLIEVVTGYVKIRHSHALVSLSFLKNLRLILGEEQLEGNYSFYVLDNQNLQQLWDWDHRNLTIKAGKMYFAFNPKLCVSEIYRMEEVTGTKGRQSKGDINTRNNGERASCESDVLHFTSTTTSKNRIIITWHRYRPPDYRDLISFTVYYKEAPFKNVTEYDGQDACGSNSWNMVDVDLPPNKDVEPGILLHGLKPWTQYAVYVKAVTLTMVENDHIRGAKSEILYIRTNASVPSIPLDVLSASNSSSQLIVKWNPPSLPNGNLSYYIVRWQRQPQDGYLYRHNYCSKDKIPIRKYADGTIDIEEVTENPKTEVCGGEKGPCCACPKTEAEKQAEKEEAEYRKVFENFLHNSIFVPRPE
Insulin-like growth factor 1 receptor, sequence (P08069 741-1367 limits assumed): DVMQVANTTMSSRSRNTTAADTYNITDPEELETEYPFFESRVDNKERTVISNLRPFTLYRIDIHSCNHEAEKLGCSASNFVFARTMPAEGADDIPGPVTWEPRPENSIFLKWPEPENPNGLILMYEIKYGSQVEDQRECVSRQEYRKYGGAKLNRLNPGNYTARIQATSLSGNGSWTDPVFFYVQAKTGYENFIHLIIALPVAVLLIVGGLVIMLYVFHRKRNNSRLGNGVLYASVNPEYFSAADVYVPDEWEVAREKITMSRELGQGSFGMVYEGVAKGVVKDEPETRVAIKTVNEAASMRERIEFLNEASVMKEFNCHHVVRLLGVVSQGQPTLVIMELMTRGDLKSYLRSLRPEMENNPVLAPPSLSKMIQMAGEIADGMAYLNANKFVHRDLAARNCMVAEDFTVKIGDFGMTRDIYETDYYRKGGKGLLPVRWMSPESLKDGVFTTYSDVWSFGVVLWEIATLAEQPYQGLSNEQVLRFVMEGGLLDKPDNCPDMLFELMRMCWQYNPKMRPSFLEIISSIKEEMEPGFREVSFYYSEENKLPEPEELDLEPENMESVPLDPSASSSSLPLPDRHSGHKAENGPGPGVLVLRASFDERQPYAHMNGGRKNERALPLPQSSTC
Serine/threonine-protein kinase Nek9, sequence (Q8TD19 whole entry, the tested form may be a part): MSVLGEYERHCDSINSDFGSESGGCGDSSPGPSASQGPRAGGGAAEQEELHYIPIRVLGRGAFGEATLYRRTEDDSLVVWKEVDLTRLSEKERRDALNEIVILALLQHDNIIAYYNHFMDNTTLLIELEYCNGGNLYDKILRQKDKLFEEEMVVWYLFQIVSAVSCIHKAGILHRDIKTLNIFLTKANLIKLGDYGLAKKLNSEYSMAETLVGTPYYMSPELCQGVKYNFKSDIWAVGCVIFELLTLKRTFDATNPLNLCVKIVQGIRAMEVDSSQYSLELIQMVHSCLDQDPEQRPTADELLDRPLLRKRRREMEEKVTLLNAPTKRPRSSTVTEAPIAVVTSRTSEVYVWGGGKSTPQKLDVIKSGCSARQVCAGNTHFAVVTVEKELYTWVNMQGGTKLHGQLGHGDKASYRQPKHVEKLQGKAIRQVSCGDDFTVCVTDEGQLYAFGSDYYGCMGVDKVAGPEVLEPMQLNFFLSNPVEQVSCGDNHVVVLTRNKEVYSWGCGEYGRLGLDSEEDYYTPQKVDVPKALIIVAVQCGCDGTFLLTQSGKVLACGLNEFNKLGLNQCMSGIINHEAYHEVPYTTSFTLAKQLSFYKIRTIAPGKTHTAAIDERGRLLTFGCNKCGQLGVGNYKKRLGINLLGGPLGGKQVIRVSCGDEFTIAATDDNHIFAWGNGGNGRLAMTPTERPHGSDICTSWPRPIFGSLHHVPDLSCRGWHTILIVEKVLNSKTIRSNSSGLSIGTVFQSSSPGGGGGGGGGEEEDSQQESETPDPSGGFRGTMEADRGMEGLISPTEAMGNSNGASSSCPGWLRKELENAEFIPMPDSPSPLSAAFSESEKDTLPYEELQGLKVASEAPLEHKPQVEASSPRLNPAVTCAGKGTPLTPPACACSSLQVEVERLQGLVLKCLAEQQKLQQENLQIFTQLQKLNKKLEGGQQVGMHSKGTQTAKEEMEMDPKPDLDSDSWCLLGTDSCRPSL
Macrophage colony-stimulating factor 1 receptor (Homo sapiens, UniProt P07333, Y969C), sequence (P07333 20-972 Y969C limits assumed): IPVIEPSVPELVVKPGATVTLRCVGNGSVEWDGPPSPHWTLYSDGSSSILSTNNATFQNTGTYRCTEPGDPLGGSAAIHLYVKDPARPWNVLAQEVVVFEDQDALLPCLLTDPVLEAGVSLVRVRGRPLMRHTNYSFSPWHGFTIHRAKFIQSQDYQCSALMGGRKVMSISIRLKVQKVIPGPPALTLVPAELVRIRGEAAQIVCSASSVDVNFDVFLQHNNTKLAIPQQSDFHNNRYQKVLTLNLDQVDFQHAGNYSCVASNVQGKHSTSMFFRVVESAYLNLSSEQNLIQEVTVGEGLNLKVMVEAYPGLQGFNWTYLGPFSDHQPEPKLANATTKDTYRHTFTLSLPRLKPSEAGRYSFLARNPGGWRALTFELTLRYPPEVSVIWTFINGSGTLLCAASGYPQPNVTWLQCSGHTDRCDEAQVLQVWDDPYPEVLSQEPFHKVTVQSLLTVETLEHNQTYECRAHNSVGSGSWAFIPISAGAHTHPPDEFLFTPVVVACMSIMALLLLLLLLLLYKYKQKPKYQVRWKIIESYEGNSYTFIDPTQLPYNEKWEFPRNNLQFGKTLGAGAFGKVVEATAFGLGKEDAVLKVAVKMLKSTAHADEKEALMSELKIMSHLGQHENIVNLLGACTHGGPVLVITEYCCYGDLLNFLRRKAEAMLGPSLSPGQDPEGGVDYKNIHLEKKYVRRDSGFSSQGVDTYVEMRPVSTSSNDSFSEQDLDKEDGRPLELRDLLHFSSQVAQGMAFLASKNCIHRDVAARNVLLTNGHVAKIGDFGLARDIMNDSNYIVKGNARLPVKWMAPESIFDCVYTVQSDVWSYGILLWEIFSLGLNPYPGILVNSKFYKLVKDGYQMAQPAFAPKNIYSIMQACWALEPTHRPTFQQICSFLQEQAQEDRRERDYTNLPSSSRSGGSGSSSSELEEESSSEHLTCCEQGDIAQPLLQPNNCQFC
Mitogen-activated protein kinase kinase kinase 3, sequence (Q99759 whole entry, the tested form may be a part): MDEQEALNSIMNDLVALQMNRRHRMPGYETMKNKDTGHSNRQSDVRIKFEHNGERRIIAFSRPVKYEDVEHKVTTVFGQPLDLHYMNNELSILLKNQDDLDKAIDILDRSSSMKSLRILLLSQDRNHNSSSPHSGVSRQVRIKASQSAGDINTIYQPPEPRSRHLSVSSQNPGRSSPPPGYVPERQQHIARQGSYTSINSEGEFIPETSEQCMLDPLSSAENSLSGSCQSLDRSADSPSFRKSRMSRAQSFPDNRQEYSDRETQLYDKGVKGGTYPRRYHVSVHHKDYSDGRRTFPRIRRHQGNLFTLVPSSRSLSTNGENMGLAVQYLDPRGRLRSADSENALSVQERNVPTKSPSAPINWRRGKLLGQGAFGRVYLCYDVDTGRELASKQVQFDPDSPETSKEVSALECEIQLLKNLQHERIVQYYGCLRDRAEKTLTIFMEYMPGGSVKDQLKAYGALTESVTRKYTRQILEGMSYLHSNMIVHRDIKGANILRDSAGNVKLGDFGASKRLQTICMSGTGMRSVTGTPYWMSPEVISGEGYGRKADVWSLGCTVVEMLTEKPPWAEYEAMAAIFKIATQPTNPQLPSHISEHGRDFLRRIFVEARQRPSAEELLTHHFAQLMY

CN(C)c1ccc(C(=O)Nc2cccc(NC(=O)COc3ccc4c(=O)ccoc4c3)c2)cc1
> 10 µM: all assays above
